Experimental data published in US8680159B2, “Bradykinin 1 receptor modulating compounds” (Gruenenthal GmbH, priority 2010, dated 2014).

Tests used:
[1] = target: T1, B1R receptor of the rat (CHO K1 cells stably transfected with the B1R gene of the rat) (Rattus norvegicus, UniProt P97583); experiment: Functional study on the bradykinin receptor 1 (B1R), Ca2+ fluorescence (Fluo-4) FLIPR/Novostar assay, rB1R cells; assay type: cell-based; conditions: CHO-K1, 10 μM, read-out: % inhibition (rat B1R) at 10 μM
T1 construct: expressed in transfected cells; host or cells: CHO K1 cells (Chinese hamster ovary), stably transfected
T1 sequence (P97583 1-337): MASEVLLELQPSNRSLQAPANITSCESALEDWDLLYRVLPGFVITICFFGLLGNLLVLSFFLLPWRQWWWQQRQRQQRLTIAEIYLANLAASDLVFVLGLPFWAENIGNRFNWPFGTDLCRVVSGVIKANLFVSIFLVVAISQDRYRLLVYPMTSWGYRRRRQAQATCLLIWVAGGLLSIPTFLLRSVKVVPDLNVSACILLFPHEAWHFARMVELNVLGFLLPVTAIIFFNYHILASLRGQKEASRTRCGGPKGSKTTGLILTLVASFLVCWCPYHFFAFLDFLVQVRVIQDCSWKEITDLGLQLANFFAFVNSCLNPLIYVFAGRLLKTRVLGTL
In short: (§1)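 Ca2+ influx (Fluo-4, peak fluorescence, λex 488/λem 540 nm) was measured in CHO K1 lines expressing rat or human B1R. After a 10 μM test-compound pre-addition scoring % activation, cells received EC80 agonist: Des-Arg9-bradykinin for rat, Lys-Des-Arg9-bradykinin for human. Antagonism was expressed as % of maximum inhibition, with IC50 from varied concentrations.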

[2] = target: T2, human B1R receptor (CHO K1 cells stably transfected with the human B1R gene) (Homo sapiens, UniProt P46663); experiment: Functional study on the bradykinin receptor 1 (B1R), Ca2+ fluorescence (Fluo-4) FLIPR/Novostar assay, hB1R cells; assay type: cell-based; conditions: CHO-K1, read-out: % inhibition (human B1R) at 10 μM
T2 construct: expressed in transfected cells; host or cells: CHO K1 cells (Chinese hamster ovary), stably transfected
T2 sequence (P46663 1-353): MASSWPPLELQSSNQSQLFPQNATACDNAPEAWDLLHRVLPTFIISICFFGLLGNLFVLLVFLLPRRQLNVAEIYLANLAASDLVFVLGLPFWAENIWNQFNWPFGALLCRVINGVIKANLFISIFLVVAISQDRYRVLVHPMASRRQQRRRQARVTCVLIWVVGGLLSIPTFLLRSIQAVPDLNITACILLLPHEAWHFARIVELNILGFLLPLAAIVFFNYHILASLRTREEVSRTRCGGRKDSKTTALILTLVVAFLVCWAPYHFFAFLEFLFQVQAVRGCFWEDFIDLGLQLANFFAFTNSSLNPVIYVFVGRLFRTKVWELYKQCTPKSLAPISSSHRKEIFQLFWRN
In short: as §1

Compound	inhibition at 10 µM [1] [%]	inhibition at 10 µM [2] [%]
O=C(NCCC1CCN(c2ccncc2)CC1)c1ccc2c(c1)[C@H](NC(=O)c1ccccc1Cl)CC2 [Example H-15, (3R)-3-[(2-Chloro-benzoyl)amino]-N-[2-(1-pyridin-4-yl-piperidin-4-yl)-ethyl]-2,3-dihydro-1H-indene-5-carboxylic acid amide]	99	100
CN(C(=O)c1ccc2c(c1)[C@H](NC(=O)C1CCC1)CC2)C1CCN(c2ccncc2)CC1 [Example H-18, (3R)-3-(Cyclobutanecarbonylamino)-N-methyl-N-(1-pyridin-4-yl-piperidin-4-yl)-2,3-dihydro-1H-indene-5-carboxylic acid amide]	102	100
CN(C(=O)c1ccc2c(c1)[C@H](NC(=O)C(C)(C)C)CC2)C1CCN(c2ccncc2)CC1 [Example H-19, (3R)-3-(2,2-Dimethyl-propanoylamino)-N-methyl-N-(1-pyridin-4-yl-piperidin-4-yl)-2,3-dihydro-1H-indene-5-carboxylic acid amide]	103	98
CN(C(=O)c1ccc2c(c1)[C@H](NC(=O)c1cnn3cccnc13)CC2)C1CCN(c2ccncc2)CC1 [Example H-22, N-[(1R)-6-[Methyl-(1-pyridin-4-yl-piperidin-4-yl)-carbamoyl]-2,3-dihydro-1H-indene-1-yl]-pyrazolo[1,5-a]pyrimidine-3-carboxylic acid amide]	87	100
CN(C(=O)c1ccc2c(c1)[C@H](NC(=O)c1ccccc1Cl)CC2)C1CCN(c2ccccn2)CC1 [Example H-23, (3R)-3-[(2-Chloro-benzoyl)amino]-N-methyl-N-(1-pyridin-2-yl-piperidin-4-yl)-2,3-dihydro-1H-indene-5-carboxylic acid amide]	93	97
CN(C(=O)c1ccc2c(c1)[C@H](NC(=O)c1cccc(C(F)(F)F)c1Cl)CC2)C1CCN(c2ccncc2)CC1 [Example H-24, (3R)-3-[[2-Chloro-3-(trifluoromethyl)-benzoyl]amino]-N-methyl-N-(1-pyridin-4-yl-piperidin-4-yl)-2,3-dihydro-1H-indene-5-carboxylic acid amide]	98	100
CN(C(=O)c1ccc2c(c1)CC[C@H]2N1Cc2cccc(Cl)c2C1=O)C1CCN(c2ccccn2)CC1 [Example H-26, (1R)-1-(4-Chloro-3-oxo-1,2-dihydro-isoindol-2-yl)-N-methyl-N-(1-pyridin-2-yl-piperidin-4-yl)-2,3-dihydro-1H-indene-5-carboxylic acid amide]	0	52
CN(C(=O)c1ccc2c(c1)CC[C@H]2N1Cc2cccc(Cl)c2C1=O)C1CCN(Cc2ccncc2)CC1 [Example H-27, (1R)-1-(4-Chloro-3-oxo-1,2-dihydro-isoindol-2-yl)-N-methyl-N-[1-(pyridin-4-yl-methyl)-piperidin-4-yl]-2,3-dihydro-1H-indene-5-carboxylic acid amide]	11	74
CC(C)CC(=O)N[C@@H]1CCc2ccc(C(=O)N(C)C3CCN(c4ccncc4)CC3)cc21 [Example H-28, (3R)-N-Methyl-3-(3-methyl-butanoylamino)-N-(1-pyridin-4-yl-piperidin-4-yl)-2,3-dihydro-1H-indene-5-carboxylic acid amide]	100	100
CN(C(=O)c1ccc2c(c1)[C@H](NC(=O)c1cncnc1)CC2)C1CCN(c2ccncc2)CC1 [Example H-31, N-[(1R)-6-[Methyl-(1-pyridin-4-yl-piperidin-4yl)carbamoyl]-2,3-dihydro-1H-inden-1-yl]-pyrimidine-5-carboxylic acid amide]	70	100
CC(C)CC(=O)N[C@@H]1CCc2cc(C(=O)N(C)C3CCN(c4ccncc4)CC3)ccc21 [Example H-34, (1R)-N-Methyl-1-(3-methyl-butanoylamino)-N-(1-pyridin-4-yl-piperidin-4-yl)-2,3-dihydro-1H-indene-5-carboxylic acid amide]	7	64
CN(C(=O)c1ccc2c(c1)[C@H](NC(=O)c1cnccc1C(F)(F)F)CC2)C1CCN(c2ccncc2)CC1 [Example H-36, N-[(1R)-6-[Methyl-(1-pyridin-4-yl-piperidin-4-yl)-carbamoyl]-2,3-dihydro-1H-inden-1-yl]-4-(trifluoromethyl)-pyridine-3-carboxylic acid amide]	105	100

Other lines, results leading:

inhibition at 10 µM [1] [%]	inhibition at 10 µM [2] [%]	Compound
92	100	CN(C(=O)c1ccc2c(c1)CC[C@H]2NS(=O)(=O)c1ccccc1Cl)C1CCN(c2ccncc2)CC1 [Example H-16, (1R)-1-[[(2-Chlorophenyl)sulfonyl]amino]-N-methyl-N-(1-pyridin-4-yl-piperidin-4-yl)-2,3-dihydro-1H-indene-5-carboxylic acid amide]
77	100	CN(C(=O)c1ccc2c(c1)CC[C@H]2NC(=O)c1ccccc1Cl)C1CCN(c2ccncc2)CC1 [Example H-17, (1R)-1-[(2-Chloro-benzoyl)amino]-N-methyl-N-(1-pyridin-4-yl-piperidin-4-yl)-2,3-dihydro-1H-indene-5-carboxylic acid amide]
103	100	CN(C(=O)c1ccc2c(c1)[C@H](NC(=O)c1ccccc1Cl)CCO2)C1CCN(c2ccncc2)CC1 [Example H-20, (4R)-4-[(2-Chloro-benzoyl)amino]-N-methyl-N-(1-pyridin-4-yl-piperidin-4-yl)-3,4-dihydro-2H-chromene-6-carboxylic acid amide]
105	99	CN(C(=O)c1ccc2c(c1)[C@@H](NC(=O)c1ccccc1Cl)CC2)C1CCN(c2ccncc2)CC1 [Example H-21, (3S)-3-[(2-Chloro-benzoyl)amino]-N-methyl-N-(1-pyridin-4-yl-piperidin-4-yl)-2,3-dihydro-1H-indene-5-carboxylic acid amide]
96	100	CN(C(=O)c1ccc2c(c1)[C@H](NC(=O)Cc1ccccc1)CC2)C1CCN(c2ccncc2)CC1 [Example H-25, (3R)-N-Methyl-3-[(2-phenyl-acetyl)amino]-N-(1-pyridin-4-yl-piperidin-4-yl)-2,3-dihydro-1H-indene-5-carboxylic acid amide]
100	99	CN(C(=O)c1ccc2c(c1)[C@H](NC(=O)c1ccccc1F)CC2)C1CCN(c2ccncc2)CC1 [Example H-29, (3R)-3-[(2-Fluoro-benzoyl)amino]-N-methyl-N-(1-pyridin-4-yl-piperidin-4-yl)-2,3-dihydro-1H-indene-5-carboxylic acid amide]
99	100	CN(C(=O)c1ccc2c(c1)[C@H](NC(=O)c1ccccc1C(F)(F)F)CC2)C1CCN(c2ccncc2)CC1 [Example H-30, (3R)-N-Methyl-N-(1-pyridin-4-yl-piperidin-4-yl)-3-[[2-(trifluoromethyl)-benzoyl]amino]-2,3-dihydro-1H-indene-5-carboxylic acid amide]
101	100	CN(C(=O)c1ccc2c(c1)[C@H](NC(=O)c1c(F)cccc1Cl)CC2)C1CCN(c2ccncc2)CC1 [Example H-32, (3R)-3-[(2-Chloro-6-fluoro-benzoyl)amino]-N-methyl-N-(1-pyridin-4-yl-piperidin-4-yl)-2,3-dihydro-1H-indene-5-carboxylic acid amide]
101	100	CN(C(=O)c1ccc2c(c1)[C@H](NS(=O)(=O)c1ccccc1Cl)CC2)C1CCN(c2ccncc2)CC1 [Example H-33, (3R)-3-[[(2-Chlorophenyl)sulfonyl]amino]-N-methyl-N-(1-pyridin-4-yl-piperidin-4-yl)-2,3-dihydro-1H-indene-5-carboxylic acid amide]
105	100	CN(C(=O)c1ccc2c(c1)[C@H](NC(=O)Cc1ccccc1Cl)CC2)C1CCN(c2ccncc2)CC1 [Example H-35, (3R)-3-[[2-(2-Chlorophenyl)-acetyl]amino]-N-methyl-N-(1-pyridin-4-yl-piperidin-4-yl)-2,3-dihydro-1H-indene-5-carboxylic acid amide]
